The test system of the experiment is L. maculans. Description: Inhibition of growth of L. maculans by other strains and polymyxins (qualitative). Type of experiment: cell-based, Leptosphaeria maculans.

The values that follow come from patent US6602500B1, “Paenibacillus polymyxa strain ATCC 202127 for biocontrol of bacteria and fungi” (The Governors of the University of Alberta, priority 1998, dated 2003).

In the case of polymyxins, the “inhibitory effect against L. maculans” value is reported as “ineffective”.
